Reference: ChEMBL document CHEMBL3232928, “Fragment-to-hit-to-lead discovery of a novel pyridylurea scaffold of ATP competitive dual targeting type II topoisomerase inhibiting antibacterial agents” (J Med Chem, 2013)
In brackets after ≈: the same amount, converted by molar mass. Each block holds one molecule with its values, some of them ahead of it.

Experiments:
[1] = tested on: Staphylococcus aureus; experiment: Inhibition of DNA synthesis in methicillin-sensitive wild type Staphylococcus aureus over 1 hr by [3H]thymidine incorporation assay; assay type: functional, organism-based
[2] = tested on: Staphylococcus aureus; experiment: Inhibition of protein synthesis in methicillin-sensitive wild type Staphylococcus aureus over 1 hr by [14C]valine incorporation assay; assay type: functional, organism-based
[3] = tested on: Staphylococcus aureus; experiment: Inhibition of protein synthesis in methicillin-sensitive wild type Staphylococcus aureus over 1 hr by [14C]leucine incorporation assay; assay type: functional, organism-based
[4] = tested on: Staphylococcus aureus; experiment: Inhibition of RNA synthesis in methicillin-sensitive wild type Staphylococcus aureus over 1 hr by [3H]uridine incorporation assay; assay type: functional, organism-based
[5] = tested on: Streptococcus pneumoniae; experiment: Inhibition of fatty acid synthesis in Streptococcus pneumoniae D39 over 1 hr by [14C]acetic acid incorporation assay; assay type: functional; settings: D39, 1 h
[6] = tested on: Staphylococcus aureus; experiment: Inhibition of fatty acid synthesis in methicillin-sensitive wild type Staphylococcus aureus over 1 hr by [14C]acetic acid incorporation assay; assay type: functional, organism-based
[7] = tested on: Streptococcus pneumoniae; experiment: Inhibition of DNA synthesis in Streptococcus pneumoniae D39 over 1 hr by [3H]thymidine incorporation assay; assay type: functional
[8] = tested on: Streptococcus pneumoniae; experiment: Inhibition of RNA synthesis in Streptococcus pneumoniae D39 over 1 hr by [3H]uridine incorporation assay; assay type: functional
[9] = tested on: Streptococcus pneumoniae; experiment: Inhibition of cell wall synthesis in Streptococcus pneumoniae D39 over 1 hr by [14C]N-acetyl glucosamine incorporation assay; assay type: functional; settings: D39, 1 h
[10] = tested on: Streptococcus pneumoniae; experiment: Inhibition of protein synthesis in Streptococcus pneumoniae D39 over 1 hr by [14C]valine incorporation assay; assay type: functional; settings: D39, 1 h
[11] = tested on: Streptococcus pneumoniae; experiment: Inhibition of protein synthesis in Streptococcus pneumoniae D39 over 1 hr by [14C]leucine incorporation assay; assay type: functional; settings: D39, 1 h
[12] = tested on: Staphylococcus aureus; experiment: Inhibition of cell wall synthesis in methicillin-sensitive wild type Staphylococcus aureus over 1 hr by [14C]N-acetyl glucosamine incorporation assay; assay type: functional, organism-based
[13] = Antibacterial activity against fluoroquinolone-resistant Streptococcus pneumoniae D39 NCTC 7466 expressing GyrA S81F/ParC S79F double mutant assessed as growth inhibition after 18 to 24 hrs by CLSI broth microdilution method; assay type: functional
[14] = Antibacterial activity against fluoroquinolone-resistant Streptococcus pneumoniae D39 NCTC 7466 expressing GyrB/ParE T172A mutant assessed as growth inhibition after 18 to 24 hrs by CLSI broth microdilution method; assay type: functional
[15] = Antibacterial activity against fluoroquinolone-resistant Streptococcus pneumoniae D39 NCTC 7466 expressing GyrB T172A/ParE T172A double mutant assessed as growth inhibition after 18 to 24 hrs by CLSI broth microdilution method; assay type: functional
[16] = Antibacterial activity against fluoroquinolone-resistant Streptococcus pneumoniae D39 NCTC 7466 expressing GyrA S81Y/ParC S79F double mutant assessed as growth inhibition after 18 to 24 hrs by CLSI broth microdilution method; assay type: functional
[17] = tested on: Streptococcus pneumoniae; experiment: microbe, parasite or virus in culture
Description: Antibacterial activity against wild type Streptococcus pneumoniae assessed as growth inhibition after 18 to 24 hrs by CLSI broth microdilution method

[18] = Antibacterial activity against fluoroquinolone-resistant Streptococcus pneumoniae D39 NCTC 7466 expressing GyrA S81F/ParC S79Y double mutant assessed as growth inhibition after 18 to 24 hrs by CLSI broth microdilution method; assay type: functional
[19] = Antibacterial activity against fluoroquinolone-resistant Streptococcus pneumoniae D39 NCTC 7466 expressing ParE/GyrB T172A mutant assessed as growth inhibition after 18 to 24 hrs by CLSI broth microdilution method; assay type: functional
[20] = Antibacterial activity against fluoroquinolone-resistant Streptococcus pneumoniae D39 NCTC 7466 expressing GyrB K143A/ParE T172A double mutant assessed as growth inhibition after 18 to 24 hrs by CLSI broth microdilution method; assay type: functional
[21] = Antibacterial activity against fluoroquinolone-resistant Streptococcus pneumoniae D39 NCTC 7466 expressing ParE/GyrB K143I mutant assessed as growth inhibition after 18 to 24 hrs by CLSI broth microdilution method; assay type: functional
[22] = Inhibition of ATPase activity in Escherichia coli ParE by ammonium molybdate/malachite green-based absorbance assay
[23] = tested on: Moraxella catarrhalis; experiment: Antibacterial activity against wild type Moraxella catarrhalis ATCC 43617 assessed as growth inhibition after 18 to 24 hrs by CLSI broth microdilution method; assay type: functional
[24] = tested on: Escherichia coli; experiment: Antibacterial activity against wild type Escherichia coli W3110 assessed as growth inhibition after 18 to 24 hrs by CLSI broth microdilution method; assay type: functional
[25] = Octanol-phosphate buffer partition coefficient, log D of the compound at pH 7.4 after 1 hr by shake flask method; assay type: physicochemical
[26] = tested on: Staphylococcus aureus; experiment: Antibacterial activity against methicillin-sensitive wild type Staphylococcus aureus assessed as growth inhibition after 18 to 24 hrs by CLSI broth microdilution method; assay type: functional
[27] = Inhibition of ATPase activity in Escherichia coli GyrA/GyrB by ammonium molybdate/malachite green-based absorbance assay
[28] = Antibacterial activity against Streptococcus pneumoniae D39 NCTC 7466 assessed as growth inhibition after 18 to 24 hrs by CLSI broth microdilution method; assay type: functional
[29] = Antibacterial activity against wild type Haemophilus influenzae Rd KW20 ATCC 51907 assessed as growth inhibition after 18 to 24 hrs by CLSI broth microdilution method; assay type: functional
[30] = tested on: Escherichia coli; experiment: Antibacterial activity against tolC efflux pump deficient Escherichia coli W3110 assessed as growth inhibition after 18 to 24 hrs by CLSI broth microdilution method; assay type: functional
[31] = Inhibition of ATPase activity in Escherichia coli ParC/ParE by ammonium molybdate/malachite green-based absorbance assay
[32] = Unbound fraction in human at 10 uM after 16 hrs by LC-MS/MS analysis; assay type: ADME; settings: plasma
[33] = Dissociation constant, pKa of the compound; assay type: physicochemical
[34] = Solubility of the compound; assay type: physicochemical
[35] = molecular target: DNA gyrase subunit B (Staphylococcus aureus, UniProt P0A0K8); experiment: Inhibition of ATPase activity in Staphylococcus aureus GyrB tetramer in presence of Escherichia coli GyrA by ammonium molybdate/malachite green-based absorbance assay
[36] = tested on: Staphylococcus aureus; experiment: Antibacterial activity against methicillin-resistant and […] Staphylococcus aureus assessed as growth inhibition after 18 to 24 hrs by CLSI broth microdilution method; assay type: functional

IC50 [1]: 3.9 µM
IC50 [2]: > 195 µM
IC50 [3]: > 174 µM
IC50 [4]: > 195 µM
IC50 [5]: > 200 µM
IC50 [6]: > 195 µM
IC50 [7]: 28 µM
IC50 [8]: > 200 µM
IC50 [9]: > 200 µM
IC50 [10]: > 200 µM
IC50 [11]: 110 µM
IC50 [12]: > 195 µM
SMILES: O=C(O)c1cn(C2CC2)c2cc(N3CCNCC3)c(F)cc2c1=O [CIPROFLOXACIN]

SMILES: CO[C@@H]1[C@@H](OC(N)=O)[C@@H](O)[C@H](Oc2ccc3c(O)c(NC(=O)c4ccc(O)c(CC=C(C)C)c4)c(=O)oc3c2C)OC1(C)C [NOVOBIOCIN]
MIC [13]: 0.25 µg/mL (≈ 0.408 µM)
MIC [14]: 0.25 µg/mL (≈ 0.408 µM)
MIC [15]: 4 µg/mL (≈ 6.53 µM)
MIC [16]: 0.25 µg/mL (≈ 0.408 µM)
MIC [17]: 0.5 µg/mL (≈ 0.816 µM)
MIC [18]: 0.25 µg/mL (≈ 0.408 µM)
MIC [19]: 2 µg/mL (≈ 3.26 µM)
MIC [20]: 4 µg/mL (≈ 6.53 µM)
MIC [21]: 1 µg/mL (≈ 1.63 µM)

SMILES: CCNC(=O)Nc1cc(-c2nc(C(F)(F)F)cs2)c(-c2cncc(-c3nnn[nH]3)c2)cn1
IC50 [22]: < 0.01 µM
MIC [23]: > 64 µg/mL
MIC [24]: > 64 µg/mL
logD at 1 h [25]: -0.38
MIC [26]: > 64 µg/mL
IC50 [27]: < 0.01 µM
MIC [28]: 1.4 µg/mL (≈ 3.03 µM)
MIC [29]: > 64 µg/mL
MIC [30]: 23 µg/mL (≈ 49.8 µM)
IC50 [31]: 0.26 µM
fraction unbound at 16 h, 10 µM [32]: 0.14
pKa [33]: 3.7
solubility [34]: 240 µM (≈ 111 µg/mL)
IC50 [35]: < 0.01 µM

SMILES: C[C@H]1COc2c(N3CCN(C)CC3)c(F)cc3c(=O)c(C(=O)O)cn1c23.C[C@H]1COc2c(N3CCN(C)CC3)c(F)cc3c(=O)c(C(=O)O)cn1c23.O [LEVOFLOXACIN]
MIC [13]: 16 µg/mL
MIC [14]: 1 µg/mL
MIC [15]: 0.5 µg/mL
MIC [36]: 4 µg/mL
MIC [26]: 0.13 µg/mL
MIC [16]: 16 µg/mL
MIC [18]: 32 µg/mL
MIC [19]: 0.5 µg/mL
MIC [20]: 0.5 µg/mL
MIC [21]: 1 µg/mL
